Series [1] can be described thus: Pharmacokinetics after subcutaneous or intravenous administration. The class given is in vivo, NMRI female mice. The conditions noted are these: female, NMRI, mouse, hBD-2 1 mg/kg subcutaneous or intravenous. The method, then: To investigate and compare the pharmacokinetic profile of hBD-2 fused to the C-terminal (molecular weight 71.336 Da) or N-terminal (molecular weight 71.666 Da) of human serum albumin following subcutaneous or intravenous administration of a molar equivalent to 1 mg/kg hBD-2 (molecular weight […]) to NMRI female mice.
The animals were dosed 10 ml/kg of stock concentration of 1.65 mg/ml according to the individual body weight (300 μL for a 30 gram mouse). First blood sample was taken using a submandibular sampling method and the second following Isoflurane anaesthesia and euthanasia.

In series [2] the test system is IL-1β, TNF-α, IL-6, IL-10 and IFNγ in lung tissue homogenates. As to the kind of experiment: Cytokine ELISA in lung tissue homogenates, HDM asthma model (Example 2). Format: in vivo, BALB/c mice. The conditions noted are these: vs HDM/vehicle. On the procedure:
(§1) Female 7-10 weeks old BALB/c mice were randomly allocated into 7 study groups one day prior to study start and subcutaneously (SC) sensitized to house dust mite (100 μg HDM in 200 μL saline plus Freunds complete adjuvant in 0.9% saline). Mice were then intranasally (IN) challenged with HDM on day 14 (HDM 25 μg in 50 μL of saline). […] The initial dose was administered 60 minutes prior to challenge, and the subsequent doses approximately 6 hours apart.
Lung sampling for cytokine analysis: After completion of every BAL, lungs were removed from the thorax, snap frozen in liquid nitrogen and stored frozen at −80 degrees Celsius until analysis of cytokine concentration of IL-1β, TNF-α, IL-6, IL-10 and IFNγ by ELISA.
(An ELISA detects its analyte on a solid surface through an enzyme-linked reagent.)

Series [3] has as its system TNF-α, IL-4, IL-5, IL-6, IL-9, IL-13 and IL-33 in lung homogenate. The series is described as follows: Cytokine ELISA in lung homogenate, prophylactic treatment in HDM asthma model (Example 9). The class given is in vivo, BALB/c mice. The method, then:
Female 7-10 weeks old BALB/c mice were randomly allocated into 5 study groups one day prior to study start and subcutaneously (SC) sensitized to house dust mite (100 μg HDM in 200 μL saline plus Freund's complete adjuvant in 0.9% saline). The mice were treated with hBD-2 orally and intranasally respectively at a dose of 1.2 mg/kg/day (0.4 mg/kg TID) starting on day 12 in the morning and continued TID at approximately 6 hours intervals. The last dose was administered on day 14 one hour prior to challenge. The total number of doses were 8 doses or a total of […] hBD-2. Mice were then intranasally (IN) challenged with HDM on day 14 (HDM 25 μg in 50 μL of saline).
Lung sampling for cytokine analysis: After completion of every BAL, lungs were removed from the thorax, snap frozen in liquid nitrogen and stored frozen at −80 degrees Celsius until analysis of cytokine concentration of TNF-α, IL-4, IL-5, IL-6, IL-9, IL-13 and IL-33 in lung homogenate by ELISA.

Series [4] has as its system IL-4, IL-5, IL-8 (KC), IL-9 and IL-13 in lung tissue homogenates. As to the kind of experiment: Cytokine ELISA in lung tissue homogenates, HDM asthma model (Example 3). The class given is in vivo, BALB/c mice. On the procedure: Treatment regime: Female 7-10 weeks old BALB/c mice randomly allocated into 4 study groups one day prior to study start were subcutaneously (SC) sensitized to house dust mite (100 μg HDM in 200 μL saline plus Freund's complete adjuvant in 0.9% saline). Mice were intranasally (IN) challenged with HDM on day 14 (HDM 25 μg in 50 μL of saline). hBD-2 was administered IN or orally (0.4 mg/kg TID IN; 0.4 mg/kg TID orally, 50 μL phosphate buffered saline) on day 14. The initial dose was administered 60 minutes prior to challenge, and the subsequent doses approximately 6 hours apart.
Lung tissue sampling: Lungs were removed from the thorax, snap frozen in liquid nitrogen and stored frozen at −80 degrees Celsius until analysis of cytokine concentration of IL-4, IL-5, IL-8 (KC), IL-9 and IL-13 by ELISA.
The lungs were exposed and excised by gently opening the thorax and by cutting down either side of the sternum and ribs and trimming back. Lungs from first 6 animals per group were removed from thorax, snap frozen in liquid nitrogen and stored frozen at −80° C. until analysis of cytokine concentration by ELISA.

For series [5], the system named is microbiota of the intestine. The series is described as follows: 16S microbiota analysis, interventional defensin treatment in diet-induced obese mice (Example 11). The class given is in vivo. Particulars: intervention. The source says: The experiment elucidates the effect of hBD2 and HD5 on the microbiota in diet-induced obese mice. A run-in period of 13 weeks where mice were fed a very HFD (60% energy from fat) preceded the intervention. Only mice meeting the criteria of a minimum of 12 gram weight gain (approximately 50% of initial bodyweight) during the run-in period were included in the final analyses. […] They were exposed to all experimental tests, but excluded from the analyses.
Before the intervention all mice were MR scanned. Cages of mice were allocated to experimental groups based on their fat mass. All subsequent measures were paired with data from the same mouse before the intervention. A LFD (low fat diet) reference group was running in parallel. As controls for the intervention 2 additional groups were included: 1 very HFD and 1 LFD. Experimental mice stayed on the very HFD during the intervention. The mice were on the experimental diet for 10 weeks. They were co-housed throughout the experiment, 4 mice per cage, 3 cages per group. All tests ran over 3 days, 1 cage per group per day.
Microbial analyses were carried out to study the microbiota of the intestine. Longitudinal 16S characterization was conducted on 4 paired samples from 60 mice, 240 samples in total. Each mouse was sampled prior to diet change, 1 week post diet change, 4 weeks post diet change and at termination, thus ensuring a thorough characterization of the faecal microbiota as a result of defensin treatment.

For series [6], the system named is murine house dust mite/Freunds complete adjuvant driven model of allergic asthma. As to the kind of experiment: Total and differential cell counts in BALF, HDM asthma model (Example 2). Format: in vivo, BALB/c mice. The method, then: as §1, with “apart. Airway inflammation: At 48 hours post challenge, bronchoalveolar lavage was performed washing the lungs with 3 volumes of cold PBS (0.4; 0.3 and 0.3 mL, total 1 mL). Total and differential leucocyte cell counts were determined on an automated haematological analyser Sysmex XT-2000iV.” for “apart.”

Setting [7] is: prophylactic intranasal, not statistically significantly different from the control.

Bridges are numbered along the chain shown (N, C = ends). Where no end group is shown, it is not given here.

One may read the half-life as the time needed for the level to fall by half in the phase considered. A high value points to slow loss. Consider “GIGDPVTCLKSGAICHPVFCPRRYKQIGTCGLPGTKCCKKP (disulfide 8-37, 15-30, 20-38 (inferred)) [hBD-2, human beta defensin 2]”, for which the half-life in series [1] (blood) is 1 h. Also, the CL renal in series [1] (in vivo, read-out: renal clearance) was 10 mL/min. Further, in series [2] (intranasal), the “IFN-γ level in lung tissue homogenates” value was “significant effects” and the “TNF-α level in lung tissue homogenates” value is “not significantly different from the control”. The “TNF-α level in lung tissue homogenates” value in series [2] (oral (hBD2 0.4 mg/kg TID; dexamethasone 1 mg/kg BID)) is “significantly reduced”. For the same sequence, the “IFN-γ level in lung tissue homogenates” value in series [2] (oral (hBD-2 0.4 mg/kg TID; dexamethasone 1 mg/kg BID)) is on record as “significant effects”. In series [3] (setting [7]), the “IL-4 in lung homogenate” value was “trend towards lowering”, the “IL-5 in lung homogenate” value is “trend towards lowering”, the “IL-6 in lung homogenate” value is listed as “trend towards lowering” and the “IL-9 in lung homogenate” value is “trend towards lowering”. Further, in series [3] (setting [7]), the “IL-13 in lung homogenate” value was “trend towards lowering” and the “TNF-α in lung homogenate” value is listed as “trend towards lowering”. For the same sequence, the “cytokine concentrations in lung tissue homogenates (TNF-α, IL-4, IL-5, IL-6, IL-9 and IL-13)” value in series [3] (prophylactic oral administration) is “complete normalization”. For the same sequence, in series [4] (intranasal 0.4 mg/kg TID), the “IL-4 level in lung tissue homogenates” value is listed as “significant effects”, the “IL-5 level in lung tissue homogenates” value is “significant effects” and the “IL-9 level in lung tissue homogenates” value is recorded as “significant effects”. Besides, in series [4] (oral 0.4 mg/kg TID), the “IL-4 level in lung tissue homogenates” value is given as “significant effects”, the “IL-5 level in lung tissue homogenates” value is “significant effects” and the “IL-9 level in lung tissue homogenates” value was “significant effects”. Also, the “abundance of Alloprevotella in the colon” value in series [5] (HD5 p<0.02) is “no influence”. For the same sequence, in series [5] (hBD2 p<0.0001), the “relative abundance of Bifidobacteriaceae in the small intestine” value is “dramatically and statistically significant increased”. In addition, in series [5] (p<0.04), the “relative abundance of Bifidobacteriaceae in the colon” value was “dramatically and statistically significant increased”. Further, the “neutrophil counts in BALF” value in series [6] (intranasal 0.4 mg/kg/day TID) is “significantly inhibited”. The “neutrophil counts in BALF” value in series [6] (intranasal 1.7 mg/kg/day TID) was “significantly inhibited”.

These data come from patent US11413328B2, “Methods for treating inflammatory conditions of the lungs” (priority 2016, dated 2022).
